Reference: the NIST ThermoML archive (doi:10.1021/je060271a)

Conditions: 283.15 K, Liquid, Vibrating tube method

CCCCCC(=O)OCC(COC(=O)CCCCC)(COC(=O)CCCCC)COC(=O)CCCCC [pentaerythritol tetrahexanoate]
Conditions	mass density [kg/m3]
1506.3 kPa	1004.9
1520.4 kPa	1005.1
1534.6 kPa	1005.1
1551.6 kPa	1005.1
1566 kPa	1005.2
1580.3 kPa	1005
1737.7 kPa	1005.1
1752.5 kPa	1005.1
1815.1 kPa	1005.3
1862 kPa	1005.2
1876.2 kPa	1005.2
1889.8 kPa	1005.2
1905.4 kPa	1005.1
1918.9 kPa	1005.2
1932.5 kPa	1005.2
1949.3 kPa	1005.2
1963.5 kPa	1005.2
1978.6 kPa	1005.2
1993.5 kPa	1005.3
2005.3 kPa	1005.3
2024.6 kPa	1005.3
2039 kPa	1005.3
2053.8 kPa	1005.3
2068.7 kPa	1005.3
2086.4 kPa	1005.3
2102 kPa	1005.4
2118 kPa	1005.4
2136.7 kPa	1005.4
2153 kPa	1005.4
2165.7 kPa	1005.4
2185.6 kPa	1005.4
2205.4 kPa	1005.4
2292.8 kPa	1005.5
2303.8 kPa	1005.5
2314.9 kPa	1005.4
2328.2 kPa	1005.4
2339.2 kPa	1005.5
2350.1 kPa	1005.5
2363.3 kPa	1005.4
2374.2 kPa	1005.4
2385.1 kPa	1005.4
2398.1 kPa	1005.5
2409.2 kPa	1005.6
2420.2 kPa	1005.6
2433.2 kPa	1005.5
2443.9 kPa	1005.6
2455 kPa	1005.6
2468.4 kPa	1005.6
2479.7 kPa	1005.6
2490.8 kPa	1005.5
2502 kPa	1005.6
2515.9 kPa	1005.6
2526.8 kPa	1005.5
2552.3 kPa	1005.6
2576.1 kPa	1005.6
2587.9 kPa	1005.7
2601.9 kPa	1005.7
2613.9 kPa	1005.7
2626 kPa	1005.6
2640.3 kPa	1005.7
2652.7 kPa	1005.6
2664.9 kPa	1005.8
2679.3 kPa	1005.7
2692.1 kPa	1005.6
2704.8 kPa	1005.7
2717.4 kPa	1005.8
2732.7 kPa	1005.8
2745.7 kPa	1005.8
2756.3 kPa	1005.7
2768.9 kPa	1005.7
2784.7 kPa	1005.7
2800 kPa	1005.8
2826.3 kPa	1005.9
2841.9 kPa	1005.7
2869.2 kPa	1005.8
2883.2 kPa	1005.8
2897.6 kPa	1005.8
2911.3 kPa	1005.7
2927.9 kPa	1005.8
2942 kPa	1005.9
2956 kPa	1005.9
2973 kPa	1005.9
2987.2 kPa	1005.9
3001.4 kPa	1005.9
3015.3 kPa	1005.8
3032.1 kPa	1005.8
3046.9 kPa	1005.9
3061.4 kPa	1005.9
3079.7 kPa	1005.7
3094.3 kPa	1006
3108.7 kPa	1005.9
3123.8 kPa	1006
3141.8 kPa	1006
3157 kPa	1006
3172.3 kPa	1006
3187.9 kPa	1005.9
3203.2 kPa	1006
3221.5 kPa	1005.9
3236.8 kPa	1006.1
3337.6 kPa	1006.1
3353.6 kPa	1006.1
3404.7 kPa	1006.2
3956.5 kPa	1006.4
3974.5 kPa	1006.6
3996.3 kPa	1006.6
4014.4 kPa	1006.5
4032.7 kPa	1006.5
4054 kPa	1006.5
4072 kPa	1006.5
4090 kPa	1006.6
4111.5 kPa	1006.5
4129.7 kPa	1006.7
4147.7 kPa	1006.6
4165.7 kPa	1006.5
4186.7 kPa	1006.6
4204.2 kPa	1006.6
4221.8 kPa	1006.7
4239.5 kPa	1006.7
4260.6 kPa	1006.6
4277.8 kPa	1006.6
4294.9 kPa	1006.7
4314.8 kPa	1006.6
4331.6 kPa	1006.6
4348.2 kPa	1006.7
4364.2 kPa	1006.7
4383.5 kPa	1006.7
4399.6 kPa	1006.7
4414.7 kPa	1006.7
4432.7 kPa	1006.6
4448.3 kPa	1006.8
4462.4 kPa	1006.6
4476.2 kPa	1006.7
4489.5 kPa	1006.7
4504.9 kPa	1006.8
4517.6 kPa	1006.8
4530.4 kPa	1006.7
4542.7 kPa	1006.7
4556.9 kPa	1006.8
4568.3 kPa	1006.8
4579.5 kPa	1006.7
4590.6 kPa	1006.8
4604.1 kPa	1006.8
4613.3 kPa	1006.9
4626.1 kPa	1006.8
4636.7 kPa	1006.7
4649 kPa	1006.8
4658.7 kPa	1006.9
4668 kPa	1006.9
4676.2 kPa	1006.8
4685.2 kPa	1006.8
4692.6 kPa	1006.9
4700 kPa	1006.9
4708.4 kPa	1006.8
4714.4 kPa	1006.8
4721.3 kPa	1006.9
4726.5 kPa	1006.8
4731.5 kPa	1006.9
4736.6 kPa	1006.9
4742.6 kPa	1006.9
4748 kPa	1006.9
4753 kPa	1006.9
4759.1 kPa	1006.9
4776 kPa	1006.9
4786.1 kPa	1007
4792.3 kPa	1006.9
4802.7 kPa	1006.8
4808.2 kPa	1006.8
4814.3 kPa	1006.9
4819.8 kPa	1006.9
4825.4 kPa	1007
4830.4 kPa	1007
4835.6 kPa	1007
4841.6 kPa	1006.9
4847.2 kPa	1007
4852.3 kPa	1006.9
4858.9 kPa	1007
4864.1 kPa	1007
4869.3 kPa	1007
4874.5 kPa	1007
4881.1 kPa	1007
4886.6 kPa	1006.9
4892 kPa	1006.9
4898.2 kPa	1006.9
4903.6 kPa	1007
4909.8 kPa	1007
4915.2 kPa	1007
4920.5 kPa	1006.9
4926.4 kPa	1007.1
4932 kPa	1006.8
4938.5 kPa	1006.9
4943.9 kPa	1007
4949.3 kPa	1007
4955.8 kPa	1007
4961.4 kPa	1007
4966.9 kPa	1007
4972.8 kPa	1007
4978 kPa	1007
4984.9 kPa	1007
4990.4 kPa	1007.2
4996.2 kPa	1007
5002.7 kPa	1007.2
5008.1 kPa	1007
5013.8 kPa	1007.1
5020.4 kPa	1007
5026.1 kPa	1007
5031.5 kPa	1007.1
5037.2 kPa	1007
5044.1 kPa	1007.2
5049.5 kPa	1007.1
5055.5 kPa	1007
5060.9 kPa	1007.1
5067.8 kPa	1007
5073.5 kPa	1007.2
5079.2 kPa	1007.1
5085.4 kPa	1007.1
5091.5 kPa	1007.1
5098.2 kPa	1007
5103.9 kPa	1007.1
5109.8 kPa	1007
5115.5 kPa	1007.1
5122.3 kPa	1007
5128.3 kPa	1007.1
5133.9 kPa	1007.2
5138.7 kPa	1007.1
5147 kPa	1007.2
5152.5 kPa	1007
5158.3 kPa	1007.2
5164.7 kPa	1007.2
5169.6 kPa	1007.1
5176.9 kPa	1007
5183.3 kPa	1007.2
5189 kPa	1007.1
5194.8 kPa	1007.2
5201.6 kPa	1007.1
5207.6 kPa	1007
5212.7 kPa	1007.2
5218.4 kPa	1007.2
5227 kPa	1007.3
5232.6 kPa	1007.1
5237.2 kPa	1007.1
5244.5 kPa	1007.2
5250.5 kPa	1007.1
5256.8 kPa	1007.2
5263.7 kPa	1007.2
5270.8 kPa	1007.3
5276.8 kPa	1007.2
5282.7 kPa	1007.3
5290.2 kPa	1007.4
5296 kPa	1007.1
5302.1 kPa	1007.3
5453.3 kPa	1007.3
5459.7 kPa	1007.3
5467.3 kPa	1007.4
5473.7 kPa	1007.4
5479.9 kPa	1007.2
5486.3 kPa	1007.3
5494.3 kPa	1007.3
5501 kPa	1007.3
5507.2 kPa	1007.4
5514 kPa	1007.4
5528.5 kPa	1007.4
5534.4 kPa	1007.4
5540.6 kPa	1007.4
5548.4 kPa	1007.4
5555 kPa	1007.4
5561.9 kPa	1007.3
5569.7 kPa	1007.4
5575.9 kPa	1007.4
5582.8 kPa	1007.5
5589.4 kPa	1007.4
5597.4 kPa	1007.3
5604.1 kPa	1007.5
5610.3 kPa	1007.4
5618.3 kPa	1007.4
5625 kPa	1007.4
5631.6 kPa	1007.4
5639.6 kPa	1007.4
5646.1 kPa	1007.5
5652.9 kPa	1007.4
5661 kPa	1007.5
5667.7 kPa	1007.5
5674.8 kPa	1007.3
5681.2 kPa	1007.4
5687.9 kPa	1007.4
5696.2 kPa	1007.5
5703 kPa	1007.4
5709.5 kPa	1007.5
5716.6 kPa	1007.5
5724.4 kPa	1007.5
